Source: PubChem BioAssay (NCI)
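Protocol summary: plate cells (96-well), add compound at 5 concentrations, incubate 48 h, interpolate endpoints linearly. GI50 is the concentration that inhibits growth by half. Definition used: TGI = concentration required for complete inhibition of growth.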

What was measured:
Assay in all cases: NCI-60 cell line screen, 48 h
[1] = tested on: 786-0 renal
[2] = tested on: A498 renal
[3] = tested on: A549 NSCLC
[4] = tested on: BT-549 breast
[5] = tested on: CAKI-1 renal
[6] = tested on: COLO 205 colon
[7] = tested on: DU-145 prostate
[8] = tested on: EKVX NSCLC
[9] = tested on: HCC-2998 colon
[10] = tested on: HCT-116 colon
[11] = tested on: HCT-15 colon
[12] = tested on: HL-60(TB) leukemia
[13] = tested on: HOP-62 NSCLC
[14] = tested on: HOP-92 NSCLC
[15] = tested on: HS 578T breast
[16] = tested on: HT29 colon
[17] = tested on: IGROV1 ovarian
[18] = tested on: K-562 leukemia
[19] = tested on: KM12 colon
[20] = tested on: LOX IMVI melanoma
[21] = tested on: M14 melanoma
[22] = tested on: MCF7 breast
[23] = tested on: MDA-MB-231 breast
[24] = tested on: MDA-MB-435
[25] = tested on: MOLT-4 leukemia
[26] = tested on: NCI-H226 lung
[27] = tested on: NCI-H23 lung
[28] = tested on: NCI-H460 lung
[29] = tested on: NCI-H522 lung
[30] = tested on: NCI/ADR-RES ovarian
[31] = tested on: OVCAR-3 ovarian
[32] = tested on: OVCAR-4 ovarian
[33] = tested on: OVCAR-5 ovarian
[34] = tested on: OVCAR-8 ovarian
[35] = tested on: PC-3 prostate
[36] = tested on: RPMI-8226 leukemia
[37] = tested on: RXF 393 renal
[38] = tested on: SF-268 CNS
[39] = tested on: SF-295 CNS
[40] = tested on: SF-539 CNS
[41] = tested on: SK-MEL-2 melanoma
[42] = tested on: SK-MEL-28 melanoma
[43] = tested on: SK-MEL-5 melanoma
[44] = tested on: SK-OV-3 ovarian
[45] = tested on: SN12C renal
[46] = tested on: SNB-19 CNS
[47] = tested on: SNB-75 CNS
[48] = tested on: SR leukemia
[49] = tested on: SW-620 colon
[50] = tested on: T-47D breast
[51] = tested on: TK-10 renal
[52] = tested on: U251 CNS
[53] = tested on: UACC-257 melanoma
[54] = tested on: UACC-62 melanoma
[55] = tested on: UO-31 renal

Work on COC(=O)c1cccc(NC(=O)c2ccc(NC3=C(Cl)C(=O)N(Cc4ccccc4)C3=O)cc2)c1 yielded a GI50 [1] of 10.5 µM, a TGI [1] of 25.2 µM and a GI50 [2] of 26.3 µM. For the same compound, the TGI [2] was 73 µM, the GI50 [3] was 17.5 µM and the TGI [3] was 48.7 µM. The GI50 [4] was 15.3 µM, the TGI [4] was 31.9 µM and the GI50 [5] was 1.72 µM. For the same compound, the TGI [5] was 3.14 µM, the GI50 [6] was 21.4 µM and the TGI [6] was > 100 µM. It also gave a GI50 [7] of 7.9 µM, a TGI [7] of 25.2 µM and a GI50 [8] of 23.6 µM. It also gave a TGI [8] of 63.6 µM, a GI50 [9] of 2.04 µM and a TGI [9] of 3.77 µM. The GI50 [10] was 3.49 µM, the TGI [10] was 14.9 µM and the GI50 [11] was 2.29 µM. The TGI [11] was 17.5 µM, the GI50 [12] was 16.8 µM and the TGI [12] was 38.8 µM. For the same compound, the GI50 [13] was 15.1 µM, the TGI [13] was 35.4 µM and the GI50 [14] was 11 µM. It also gave a TGI [14] of 23.4 µM, a GI50 [15] of 22 µM and a TGI [15] of 69.4 µM. For the same compound, the GI50 [16] was 21.1 µM, the TGI [16] was > 100 µM and the GI50 [17] was 0.176 µM. It also gave a TGI [17] of 3.34 µM, a GI50 [18] of 21.3 µM and a TGI [18] of 52.7 µM. It also gave a GI50 [19] of 19.7 µM, a TGI [19] of 41.7 µM and a GI50 [20] of 1.76 µM. The TGI [20] was 16.2 µM, the GI50 [21] was 9.75 µM and the TGI [21] was 23 µM. The GI50 [22] was 22.3 µM, the TGI [22] was 49.7 µM and the GI50 [23] was 10.7 µM. For the same compound, the TGI [23] was 32.1 µM, the GI50 [24] was 14.3 µM and the TGI [24] was 34.2 µM. It also gave a GI50 [25] of 12.5 µM, a TGI [25] of 56.5 µM and a GI50 [26] of 7.25 µM. For the same compound, the TGI [26] was 35.2 µM, the GI50 [27] was 8.57 µM and the TGI [27] was 22.4 µM. It also gave a GI50 [28] of 30.2 µM, a TGI [28] of 84.6 µM and a GI50 [29] of 7.52 µM. For the same compound, the TGI [29] was 32.8 µM, the GI50 [30] was 15.9 µM and the TGI [30] was 37.6 µM. The GI50 [31] was 6.45 µM, the TGI [31] was 25.9 µM and the GI50 [32] was 16.1 µM. It also gave a TGI [32] of 56.1 µM, a GI50 [33] of 3.63 µM and a TGI [33] of 29.4 µM. It also gave a GI50 [34] of 11.4 µM, a TGI [34] of 32.1 µM and a GI50 [35] of 15.1 µM. It also gave a TGI [35] of 28.3 µM, a GI50 [36] of 10.7 µM and a TGI [36] of 23.9 µM. It also gave a GI50 [37] of 13.9 µM, a TGI [37] of 60.2 µM and a GI50 [38] of 23 µM. The TGI [38] was 54.9 µM, the GI50 [39] was 17.6 µM and the TGI [39] was 57.8 µM. The GI50 [40] was 14.7 µM, the TGI [40] was 29.5 µM and the GI50 [41] was 14.5 µM. It also gave a TGI [41] of 44.2 µM, a GI50 [42] of 15.2 µM and a TGI [42] of 52 µM. The GI50 [43] was 16.5 µM, the TGI [43] was 34 µM and the GI50 [44] was 84 µM. For the same compound, the TGI [44] was > 100 µM, the GI50 [45] was 4.69 µM and the TGI [45] was 23.6 µM. The GI50 [46] was 28.5 µM, the TGI [46] was > 100 µM and the GI50 [47] was 18.3 µM. For the same compound, the TGI [47] was 62.6 µM, the GI50 [48] was 1.87 µM and the TGI [48] was 7.56 µM. It also gave a GI50 [49] of 22.3 µM, a TGI [49] of 86.5 µM and a GI50 [50] of 4.46 µM. It also gave a TGI [50] of 63.3 µM, a GI50 [51] of 23.4 µM and a TGI [51] of 63.4 µM. The GI50 [52] was 12.7 µM, the TGI [52] was 28.3 µM and the GI50 [53] was 15.4 µM. The TGI [53] was 50.2 µM, the GI50 [54] was 11.7 µM and the TGI [54] was 25.4 µM. For the same compound, the GI50 [55] was 1.7 µM and the TGI [55] was 3.31 µM.
